{
  "source": "patent US10898463B2",
  "about": "“High-strength oral cannabinoid dosage forms” (ICDPHARMA LTD, priority 2016, dated 2021)",
  "origin": "cited, not measured here",
  "data": [
    {"conditions": "octanol/water", "values": [
      {"compound": "C=CC(C)(O)CCC=C(C)CCC=C(C)C", "note": "(stereo not shown) [Nerolidol]", "LogP": 4.68},
      {"compound": "C=CC(=C)CCC=C(C)C", "note": "[Myrcene]", "LogP": 4.17},
      {"compound": "CC12CCC(CC1=O)C2(C)C", "note": "(stereo not shown) [Camphor]", "LogP": 2.55},
      {"compound": "CC1=CCC2C(C1)C2(C)C", "note": "(stereo not shown) [Carene]", "LogP": 4.32},
      {"compound": "C=C(C)[C@H]1CC=C(C)CC1", "note": "[Limonene]", "LogP": 2.38},
      {"compound": "C=CC(C)(O)CCC=C(C)C", "note": "(stereo not shown) [Linalool]", "LogP": 2.65},
      {"compound": "Citronella", "LogP": 3.53},
      {"compound": "CC(C)=C1CC[C@@H](C)CC1=O", "note": "[Pulegone]", "LogP": 3.08},
      {"compound": "C/C(=C\\CO)CCC[C@H](C)CCC[C@H](C)CCCC(C)C", "note": "[Phytol]", "LogP": 7.04},
      {"compound": "Terpinene", "LogP": 4.5},
      {"compound": "CC12CCC(CC1)C(C)(C)O2", "note": "[Cineol]", "LogP": 2.7},
      {"compound": "CC1=CCC(O)(C(C)C)CC1", "note": "(stereo not shown) [Terpinen-4-ol]", "LogP": 3.26},
      {"compound": "COC(=O)c1ccccc1O", "note": "[Methyl salicylate]", "LogP": 2.3},
      {"compound": "C=C1CC/C=C(\\C)CC[C@@H]2[C@@H]1CC2(C)C", "note": "[Beta-caryophyllene]", "LogP": 4.72},
      {"compound": "Cc1ccc(C(C)C)c(O)c1", "note": "[Thymol]", "LogP": 3.28},
      {"compound": "CC(C)=CCC[C@](C)(O)C1CC=C(C)CC1", "note": "(stereo partly shown) [Bisabolol]", "LogP": 5.07},
      {"compound": "C=C1C2CCC(C2)C1(C)C", "note": "(stereo not shown) [Camphene]", "LogP": 4.24},
      {"compound": "C=CCc1ccc(O)c(OC)c1", "note": "[Eugenol]", "LogP": 2.66},
      {"compound": "CC1=CCC2CC1C2(C)C", "note": "(stereo not shown) [Alfa-pinene]", "LogP": 4.37}
    ]}
  ]
}
